# PMC7395068, “The evolution of strategies to minimise the risk of human drug-induced liver injury (DILI) in drug discovery and development” (Archives of Toxicology, 2020)
# Where two headings read alike, the source gives them in different places.
# What was measured:
# [1] = tested on: THLE-Null and THLE-3A4 cells; conditions: In vitro Assay; ref Gustafsson 2014; cited from earlier work
# HepaRG spheroids = assay: Combined HCI (HCS) and cellular ATP 3D assay in HepaRG spheroids; conditions: for AC50 / minimal effective concentration: Homo sapiens
# PHH [2] = conditions: In vitro Assay; ref Albrecht 2019; cited from earlier work
# HepG2 cells = conditions: cited from earlier work
# [3] = plasma free fraction; cited from earlier work
# rBsep = conditions: In vitro Assay; ref Dawson 2012; cited from earlier work
# [4] = cited from earlier work
# [5] = cited from earlier work; remark: listed apart in the source
# [6] = tested on: isolated mouse liver mitochondria; conditions: In vitro Assay; ref Porceddu 2012; cited from earlier work
# [7] = Plasma free fraction (fu) and unbound Cmax (Cmax,u); format: in vitro ADME, human; conditions: unbound plasma Cmax
# Procedure: The prediction of DILI severity was evaluated further using the 3D combined HCI assays using plasma-free fraction. The majority of fu values were obtained from literature, when unavailable in-house prediction was utilised. Unbound plasma Cmax concentrations (Cmax,u) were derived by multiplying total plasma Cmax with the corresponding free fraction (fu) for each compound.
# HepG2 = tested on: HepG2; set-up: method as in Albrecht 2019; conditions: In vitro Assay; ref Albrecht 2019; cited from earlier work
# [8] = ref Chen 2011; cited from earlier work
# hLiMTs [9] = assay: Combined HCI (HCS) and cellular ATP 3D assay in hLiMTs; conditions: for AC50 / minimal effective concentration: Homo sapiens
# hLiMTs [10] = conditions: cited from earlier work
# [11] = tested on: HepG2 C3A spheroid, BSEP, Glu/Gal in HepG2 cells, bioactivation; conditions: cited from earlier work
# PHH [12] = conditions: cited from earlier work
# [13] = read-out: Human plasma Cmax; total plasma Cmax.tot, median of 9 literature references; cited from earlier work
# PHH spheroids = conditions: cited from earlier work
# [14] = tested on: primary human hepatocytes, NIH3T3 fibroblasts, BSEP, CYP3A4; conditions: cited from earlier work
# [15] = tested on: HepG2 cells, primary human hepatocytes; conditions: In vitro Assay; ref Garside 2014; cited from earlier work
# [16] = tested on: THLE or HepG2 cells, isolated mitochondria, BSEP; conditions: cited from earlier work
# [17] = Microtissue model structural based (HCI), combined HCS and ATP, MEC < 25 × Cmax.tot cut-off
# [18] = In vitro Assay, ref Persson 2013
# [19] = In vitro Assay, ref Proctor 2017
# [20] = In vitro Assay, ref Schadt 2015
# [21] = Modeled in vitro assays (cytotoxicity, mitochondrial dysfunction, BSEP), ref Aleo et al. 2019
smiles,measurement,setting,value
"Cc1ccc(C(=O)c2cc(O)c(O)c([N+](=O)[O-])c2)cc1 [tolcapone, reference compound]",THLE-Null,[1],+VE
same,THLE-Null/3A4,[1],-VE
same,HepaRG <25x Avg Cmax ATP,"HepaRG spheroids; HepaRG, ATP endpoint, cut-off <25x Avg Cmax",+ve
same,HepaRG <100x Avg Cmaxu ATP,"HepaRG spheroids; HepaRG, ATP endpoint, cut-off <100x Avg Cmaxu",-ve
same,HepaRG <25x Avg Cmax HCS,"HepaRG spheroids; HepaRG, HCS endpoints, cut-off <25x Avg Cmax",+ve
same,HepaRG <100x Avg Cmaxu HCS,"HepaRG spheroids; HepaRG, HCS endpoints, cut-off <100x Avg Cmaxu",-ve
same,HepaRG <25x Avg Cmax All,"HepaRG spheroids; HepaRG, all endpoints (ATP and HCS), cut-off <25x Avg Cmax",+ve
same,HepaRG Cmax max All,"HepaRG spheroids; HepaRG, all endpoints, Cmax max used",+ve
same,HepaRG Cmax min All,"HepaRG spheroids; HepaRG, all endpoints, Cmax min used",+ve
same,HepaRG <10 uM All,"HepaRG spheroids; HepaRG, all endpoints, cut-off <10 uM",-ve
same,HepaRG <100x Avg Cmaxu All,"HepaRG spheroids; HepaRG, all endpoints, cut-off <100x Avg Cmaxu",-ve
same,AC50,"HepaRG spheroids; HepaRG, read-out: ATP endpoint AC50",35.3 µM
same,minimal effective concentration,"HepaRG spheroids; HepaRG, read-out: ATP endpoint MEC",20.5 µM
same,AC50,"HepaRG spheroids; HepaRG, read-out: HCS endpoint AC50",36.1 µM
same,minimal effective concentration,"HepaRG spheroids; HepaRG, read-out: HCS endpoint MEC",21 µM
same,DILI prediction HepaRG spheroids (HCS-MEC),HepaRG spheroids; [17],+VE (MEC < 25 × Cmax.tot cut-off)
same,Cytotoxicity PHH 48 hrs,PHH [2],+VE
same,Cluser analysis,HepG2 cells; [18],-VE
same,Structural based (HCI),HepG2 cells; [18],+VE
same,"DILI in vitro assay prediction, Persson (2013)","HepG2 cells; Structural based (HCI), HepG2, ref Persson et al. 2013",-VE
same,fu,[3],0.001
same,Inhibition of rBsep cutoff<1& cmax u>.2,rBsep,+VE
same,Inhibition of rBsep cutoff<3,rBsep,+VE
same,Assigned DILI category,"[4]; Chen et al. 2016 or literature alignment, ref Chen et al. 2016",3
same,In vivo DILI,[4]; ref Albrecht 2019,+VE
same,In vivo DILI,[4]; ref Aleo 2019,+VE
same,In vivo DILI,[4]; ref Dawson 2012,+VE
same,In vivo DILI,[4]; ref Garside 2014,+VE
same,In vivo DILI,[4]; ref Gustafsson 2014,+VE
same,In vivo DILI,[4]; ref Persson 2013,+VE
same,In vivo DILI,[4]; ref Porceddu 2012,+VE
same,In vivo DILI,[4]; ref Proctor 2017,+VE
same,In vivo DILI,[4]; ref Schadt 2015,+VE
same,In vivo DILI,[4]; ref Vorrink 2018,+VE
same,In vivo DILI,[4]; ref Williams 2019,+VE
same,DILI severity category (Chen et al. [2016]),"[5]; LTKB DILIrank category, ref Chen et al. 2016",Most
same,DILI severity category (Chen 2016),"[5]; human DILI classification, LTKB DILIrank, ref Chen et al. 2016",Most
same,DILI severity category,"[5]; human DILI severity, ref Chen et al.",Most
same,"DILI +VE (5-8), DILI -VE (-4)",[5]; ref Chen 2016,+VE
same,DILI severity category,[5]; ref Chen 2016,vMost-DILI-Concern
same,in vitro data EC2<=1x Cmax,[6],+VE
same,in vitro data EC20<=2uM,[6],-VE
same,"Human plasma Cmax,u",[7],0.048 µM
same,Cytotoxicity HepG2 48 hrs,HepG2,+VE
same,DILI Score (FDA) (1-8),[8],8
same,AC50,hLiMTs [9]; read-out: ATP endpoint AC50,161 µM
same,minimal effective concentration,hLiMTs [9]; read-out: ATP endpoint MEC,114 µM
same,AC50,hLiMTs [9]; read-out: HCS endpoint AC50,60.8 µM
same,minimal effective concentration,hLiMTs [9]; read-out: HCS endpoint MEC,24.1 µM
same,DILI prediction hLiMTs (HCS-MEC),hLiMTs [9]; [17],+VE (MEC < 25 × Cmax.tot cut-off)
same,hLiMTs <25x Avg Cmax ATP,"hLiMTs [9]; hLiMTs, ATP endpoint, cut-off <25x Avg Cmax",+ve
same,hLiMTs <100x Avg Cmaxu ATP,"hLiMTs [9]; hLiMTs, ATP endpoint, cut-off <100x Avg Cmaxu",-ve
same,hLiMTs <25x Avg Cmax HCS,"hLiMTs [9]; hLiMTs, HCS endpoints, cut-off <25x Avg Cmax",+ve
same,hLiMTs <100x Avg Cmaxu HCS,"hLiMTs [9]; hLiMTs, HCS endpoints, cut-off <100x Avg Cmaxu",-ve
same,hLiMTs <25x Avg Cmax All,"hLiMTs [9]; hLiMTs, all endpoints (ATP and HCS), cut-off <25x Avg Cmax",+ve
same,hLiMTs Cmax max All,"hLiMTs [9]; hLiMTs, all endpoints, Cmax max used",+ve
same,hLiMTs Cmax min All,"hLiMTs [9]; hLiMTs, all endpoints, Cmax min used",+ve
same,hLiMTs <10 uM All,"hLiMTs [9]; hLiMTs, all endpoints, cut-off <10 uM",-ve
same,hLiMTs <100x Avg Cmaxu All,"hLiMTs [9]; hLiMTs, all endpoints, cut-off <100x Avg Cmaxu",-ve
same,hLiMTs ATP <100uM,hLiMTs [10]; [19],+VE (IC50 threshold of 100 µM)
same,"hLiMTs/100xCmax, Proctor (2017)","hLiMTs [10]; hLiMTs, ATP, IC50 < 100 × Cmax.tot, ref Proctor et al. 2017",+VE (IC50 < 100 × Cmax.tot)
same,"hLiMTs/100uM, Proctor (2017)","hLiMTs [10]; hLiMTs, ATP, IC50 threshold 100 µM, ref Proctor et al. 2017",+VE (IC50 threshold of 100 µM)
same,"Bayesian Machine Learning DILI prediction, Williams (2019)","[11]; Bayesian modeling, ref Williams et al. 2019",+VE
same,Bayesian Machine Learning,"[11]; In vitro Assay, ref Williams 2019",+VE
same,"PHH/100xCmax, Proctor (2017)","PHH [12]; 2D PHH, ATP, IC50 < 100 × Cmax.tot, ref Proctor et al. 2017",+VE (IC50 < 100 × Cmax.tot)
same,"PHH/100uM, Proctor (2017)","PHH [12]; 2D PHH, ATP, IC50 threshold 100 µM, ref Proctor et al. 2017",-VE
same,PHH ATP <100uM,PHH [12]; [19],+VE (IC50 threshold of 100 µM)
same,Cmax,[13],47.6 µM
same,hLiMTs ATP <20 x Cmax,"PHH spheroids; In vitro Assay, ref Vorrink 2018",+VE (IC20 < 20 × Cmax.tot cut-off)
same,"DILI in vitro assay prediction, Vorrink (2018)","PHH spheroids; PHH spheroids, ATP, 14 days, IC20 < 20 × Cmax.tot, ref Vorrink et al. 2018",+VE (IC20 < 20 × Cmax.tot cut-off)
same,"DILI in vitro assay prediction, Schadt (2015)","[14]; BSEP & Metabolism based, ref Schadt et al. 2015",+VE
same,Cellular toxicity (3T3 cells),[14]; [20],+VE
same,Combined Assay,[14]; [20],+VE
same,GSH adduct HML,[14]; [20],+VE
same,Hepatocyte cellular toxicity,[14]; [20],+VE
same,MitoTox 3T3,[14]; [20],-VE
same,TDI CYP3A4,[14]; [20],-VE
same,hBSEP inhibition,[14]; [20],+VE
same,Cluster 1-6 +VE Assay,[15],+VE
same,Partition Hybrid HRM Score,"[16]; In vitro Assay, ref Aleo 2019",+VE
same,Ro2 Hybrid HRM Score,"[16]; In vitro Assay, ref Aleo 2019",+VE
same,"Partition Hybrid HRM Score ≥4, Aleo (2019)",[16]; [21],+VE (Partition Hybrid HRM Score ≥4)
same,"Partition Hybrid HRM Score ≥8, Aleo (2019)",[16]; [21],+VE (Partition Hybrid HRM Score ≥8)
same,"Rule of Two hybrid HRM Score ≥3, Aleo (2019)",[16]; [21],+VE (Rule of Two hybrid HRM Score ≥3)
same,"Rule of Two hybrid HRM Score ≥8, Aleo (2019)",[16]; [21],+VE (Rule of Two hybrid HRM Score ≥8)
